{"source": "patent US20230111180A1", "about": "“HYDROGEN CONTAINING COMPOSITION AND METHODS OF USING THE SAME” (MiZ Company Limited, priority 2017, published 2023)", "key": {"[1]": {"test_system": "PTSD caused by abuse in early childhood", "conditions": "for Total score (PCL-5): 7% hydrogen gas inhaled, before inhalation score 66", "procedure": "(§1) Adult women who had lived for 10 years or longer after the onset of PTSD caused by abuse in early childhood were subjected to inhalation of hydrogen gas with a concentration of 7% by using a hydrogen generator (MHG-2000α, produced by MiZ Company Limited) for at least 1 hour (up to 4 hours) per day over 7 weeks. Each of the subjects had been regularly using an analgesic prescribed by a physician to treat pain, and continued the regular use also during the period of inhalation.\nSymptoms of PTSD were quantified through interviews by a physician with the PTSD Checklist for DSM-5 (PCL-5; published by the National Center for PTSD)."}, "[2]": {"test_system": "PTSD due to an intense psychological shock received in military operations", "conditions": "for Total score: 7% hydrogen gas inhaled, before inhalation score 49", "procedure": "as §1, with “had experienced” for “had lived for 10 years or longer after”, “PTSD due to an intense psychological shock received” for “PTSD caused by abuse”, “in military operations” for “in early childhood”, “least 2 hours” for “least 1 hour”, “over 3” for “over 7”\n(§2) Symptoms of PTSD were quantified through interviews by a physician."}, "[3]": {"test_system": "PTSD due to physical abuse in early childhood and later stages", "conditions": "7% hydrogen gas inhaled, before inhalation score 61", "procedure": "Adult women who had experienced the onset of PTSD due to an intense psychological shock received through physical abuse in early childhood and later stages were subjected to inhalation of hydrogen gas with a concentration of 7% by using a hydrogen generator (MHG-2000α, produced by MiZ Company Limited) for 1 to 3 hours per day over 3 weeks. Each of the subjects had been regularly using an analgesic prescribed by a physician to treat pain, and continued the regular use also during the period of inhalation.\nas §2"}, "[4]": {"test_system": "ROS formation in the brains", "conditions": "6 days after blast exposure; 4% hydrogen gas 6 hours per day", "procedure": "(§3) All animal experiments relating to the present invention were conducted according to the institutional ethical guidelines for animal experiments of the National Defense Medical College and these animal experiments were approved by the Committee for Animal Research at the National Defense Medical College. Inbred C57BL/6 mice were used in this experiment. Age-matched male littermate mice were used in all experiments. The mice were housed in a breeding room with a 12-h light/dark cycle and a room temperature maintained at 24±1° C. The mice had ad libitum access to water and food.\n(§4) The mice at 10 weeks of age were anesthetized by intraperitoneal administration of mixed anesthetic agents containing medetomidine hydrochloride (0.3 mg/kg, Domitol, Meiji Seika Pharma Co., Ltd.), midazolam (4.0 mg/kg, Dormice, Astellas Pharma Inc.), and butorphanol (5.0 mg/kg, Vetorphale, Meiji Seika Pharma Co., Ltd.). […] Following blast exposure, mice were allowed to recover from anesthesia and were subsequently returned to their home cage.\n(§5) Mice were placed in a humid chamber for hydrogen gas inhalation for 6 hours per day. Hydrogen gas diluted by air (4%) was supplied to the chamber from a hydrogen gas supply apparatus (MiZ Company Limited) at a feeding rate of 2 L/min. The mice had ad libitum access to water and food in the chamber."}, "[5]": {"test_system": "mice exposed to blast (bmTBI)", "procedure": "as §3, §4, §5\nBehavioral analysis was performed 7 days after the blast exposure. All mice used in the behavioral analysis were age-matched male littermates. The behavior of each mouse was monitored and analyzed using a computer-operated video tracking system (SMART, Panlab, Barcelona, Spain), unless otherwise stated. In tests using an apparatus with arms, arm entry was counted when all four legs of a mouse entered each arm. The apparatus was washed after each test. Behavioral studies were performed for mice at 11 to 12 weeks of age."}, "[6]": {"test_system": "mice exposed to blast (bmTBI)", "procedure": "as §3, with “food. […]” for “food.”\nBehavioral analysis was performed 7 days after the blast exposure. […] The behavior of each mouse was monitored and analyzed using a computer-operated video tracking system (SMART, Panlab, Barcelona, Spain), unless otherwise stated. In tests using an apparatus with arms, arm entry was counted when all four legs of a mouse entered each arm. […]\nA sociability test was performed by using a conventional method. Interaction time with another living mouse versus a stuffed mouse was measured in an open field using two cylinder cages allowing olfactory and minimal tactile feelings. […]", "remark": "listed apart in the source"}, "[7]": {"conditions": "at clinical concentrations, previous studies; cited from earlier work"}, "[8]": {"conditions": "7 days after blast, 4% hydrogen gas 6 hours per day for 7 days, one-way ANOVA p>0.05"}}, "note": "Where two headings read alike, the source gives them in different places.", "data": [{"smiles": "[HH]", "note": "[hydrogen gas]", "values": [{"measurement": "Symptoms of PTSD after the initiation of inhalation", "setting": "[1]; 7% hydrogen gas, 1 to 4 hours per day over 7 weeks", "result": "tended to ameliorate"}, {"measurement": "Total score (PCL-5)", "setting": "[1]; Week 1, average 2.2 H/day", "result": 55}, {"measurement": "Total score (PCL-5)", "setting": "[1]; Week 2, average 3.8 H/day", "result": 41}, {"measurement": "Total score (PCL-5)", "setting": "[1]; Week 4, average 2.8 H/day", "result": 41}, {"measurement": "Total score (PCL-5)", "setting": "[1]; Week 7, average 1.1 H/day", "result": 27}, {"measurement": "Symptoms of PTSD after the initiation of inhalation", "setting": "[2]; 7% hydrogen gas, 2 to 4 hours per day over 3 weeks", "result": "tended to ameliorate"}, {"measurement": "Total score", "setting": "[2]; Week 2, average 4 H/day", "result": 16}, {"measurement": "Total score", "setting": "[2]; Week 3, average 2 H/day", "result": 12}, {"measurement": "Total score", "setting": "[3]; Week 1, average 3 H/day", "result": 62}, {"measurement": "Total score", "setting": "[3]; Week 2, average 2 H/day", "result": 60}, {"measurement": "Total score", "setting": "[3]; Week 4, average 1 H/day", "result": 49}, {"measurement": "Total score", "setting": "[3]; Week 7, average 2 H/day", "result": 53}, {"measurement": "Total score", "setting": "[3]; Week 10, average 2.15 H/day", "result": 50}, {"measurement": "ROS in the brains (ethidium fluorescence) versus blast exposure alone", "setting": "[4]", "result": "significantly reduced"}, {"measurement": "Activity, total distance traveled in 10 minutes, versus sham", "setting": "[5]; [8]", "result": "did not show abnormal activity"}, {"measurement": "Percentage of time spent in the open arms, comparison of Sham, bmTBI, bmTBI+H2", "setting": "[5]; [8]", "result": "did not differ significantly"}, {"measurement": "Gross motor function, latency on accelerating rotarod", "setting": "[5]; 7 days after blast, 4% hydrogen gas 6 hours per day for 7 days, two-way ANOVA p>0.05", "result": "gross motor function was intact"}, {"measurement": "Total immobility time during the 6-minute trial", "setting": "[5]; bmTBI+H2 group versus control, bmTBI increased, one-way ANOVA F=6.94, p=0.0036", "result": "comparable immobility time to control mice (Sham)"}, {"measurement": "Latency to the first bout of immobility", "setting": "[5]; bmTBI+H2 group versus control, one-way ANOVA F=6.42, p=0.0051", "result": "latencies comparable to the control (Sham) group"}, {"measurement": "Correct choices (spatial working memory)", "setting": "[5]; bmTBI+H2 group, Sham 62.6±1.8%, bmTBI 62.3±3.4%, mean±standard error, p>0.05", "result": "60.4±3.4", "unit": "%"}, {"measurement": "Depression-like behaviors induced by blast exposure", "setting": "[5]; conclusion from tail suspension and forced swim tests", "result": "suppresses depression-like behaviors induced by blast exposure"}, {"measurement": "Duration of interaction with an inanimate novel object, difference between groups", "setting": "[5]; one-way ANOVA p>0.05", "result": "no difference"}, {"measurement": "Time required to find the buried food, difference between groups", "setting": "[5]; one-way ANOVA p>0.05", "result": "no difference was found in the olfactory test"}, {"measurement": "Abnormal social behaviors induced by blast", "setting": "[6]; conclusion from sociability, olfactory and novelty tests", "result": "suppressed the abnormal social behaviors induced by blast"}, {"measurement": "Difference between interaction time with living mouse and with stuffed mouse", "setting": "[6]; within bmTBI+H2 group, t-test p>0.05", "result": "no significant difference"}, {"measurement": "Side effects of hydrogen", "setting": "[7]", "result": "no serious side effect"}]}]}
